Laboratory results reported in US20220411439A1, “POLYMORPHS OF A MACROCYCLIC KINASE INHIBITOR” (TURNING POINT THERAPEUTICS, INC., priority 2019, published 2022).
Read-outs that look alike come from different tables or passages of the source.

Target: T1, Ba/F3 KIF5B-RET (Homo sapiens, UniProt P07949, cells depend on it, form not given)
T1 construct: IC50 (nM); other: Experiment 1; other: Experiment 2; fused on or other part: P33176 (Kinesin-1 heavy chain)
Assay: Compound I anti-cell proliferation comparison (FIG. 5A, 5B)
Type: cell-based
Conditions: for GI50: read-out: IC50 (the source's name)
Source text: The KIF5B-RET gene was synthesized at GenScript and cloned into pCDH-CMV-MCS-EF1-Puro plasmid (System Biosciences, Inc). KIF5B-RET point mutation V804M and G810C were generated at GenScript by PCR and confirmed by sequencing. Ba/F3-KIF5B-RET wild type and mutant were generated by transducing Ba/F3 cells with lentivirus containing KIF5B-RET wide type or mutant. Stable cell lines were selected by puromycin treatment, followed by IL-3 withdrawal. Briefly, 5×10^6 Ba/F3 cells were transduced with lentivirus supernatant in the presence of 8 μg/mL protamine sulfate. The transduced cells were subsequently selected with 1 μg/mL puromycin in the presence of IL3-containing medium RPMI1640, plus 10% FBS. After 10-12 days of selection, the surviving cells were further selected for […] independent growth.
Two thousand cells per well were seeded in 384 well white plate for 24 hrs, and then treated with compounds for 72 hours (37° C., 5% CO2). Cell proliferation was measured using CellTiter-Glo luciferase-based ATP detection assay (Promega) following the manufactures's protocol. IC50 determinations were performed using GraphPad Prism software (GraphPad, Inc., San Diego, Calif.).

T1 sequence (P07949 whole entry G810C, form open, the tested form may be a part): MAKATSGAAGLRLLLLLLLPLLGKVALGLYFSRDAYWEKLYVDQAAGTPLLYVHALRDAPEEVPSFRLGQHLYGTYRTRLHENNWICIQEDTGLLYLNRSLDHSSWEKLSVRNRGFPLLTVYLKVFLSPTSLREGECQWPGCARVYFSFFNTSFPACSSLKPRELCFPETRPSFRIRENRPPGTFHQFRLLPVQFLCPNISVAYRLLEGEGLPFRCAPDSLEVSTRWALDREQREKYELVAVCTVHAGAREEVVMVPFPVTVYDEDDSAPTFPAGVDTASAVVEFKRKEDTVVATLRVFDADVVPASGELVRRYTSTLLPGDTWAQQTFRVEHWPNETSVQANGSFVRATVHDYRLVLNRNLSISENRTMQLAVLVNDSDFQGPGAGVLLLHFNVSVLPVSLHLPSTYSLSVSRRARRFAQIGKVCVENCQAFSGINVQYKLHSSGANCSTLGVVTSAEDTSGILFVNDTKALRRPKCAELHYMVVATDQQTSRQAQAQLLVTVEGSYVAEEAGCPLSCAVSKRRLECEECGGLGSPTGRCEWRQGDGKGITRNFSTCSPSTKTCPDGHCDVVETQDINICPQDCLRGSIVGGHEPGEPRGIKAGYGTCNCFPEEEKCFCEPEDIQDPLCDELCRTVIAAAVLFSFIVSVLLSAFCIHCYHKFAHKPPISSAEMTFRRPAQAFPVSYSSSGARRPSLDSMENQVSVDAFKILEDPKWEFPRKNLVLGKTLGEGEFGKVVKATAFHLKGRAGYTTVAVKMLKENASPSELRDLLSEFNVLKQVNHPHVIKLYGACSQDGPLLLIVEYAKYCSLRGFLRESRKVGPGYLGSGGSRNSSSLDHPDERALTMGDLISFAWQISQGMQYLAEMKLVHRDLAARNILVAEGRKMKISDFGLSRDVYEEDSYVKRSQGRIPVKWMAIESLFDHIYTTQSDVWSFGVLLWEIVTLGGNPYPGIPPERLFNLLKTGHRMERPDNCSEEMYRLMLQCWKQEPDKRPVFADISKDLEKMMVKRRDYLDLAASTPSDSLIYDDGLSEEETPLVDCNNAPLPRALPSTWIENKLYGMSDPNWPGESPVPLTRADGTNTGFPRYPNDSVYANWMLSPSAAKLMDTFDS

IC75 (Experiment 1) [nM] | IC90 (Experiment 1) [nM] | GI50 (Experiment 1) [nM] | IC75 (Experiment 2) [nM] | IC90 (Experiment 2) [nM] | GI50 (Experiment 2) [nM] | SMILES
115.4 | 720 | 18.5 | 214.3 | 1030 | 44.6 | CO[C@]1(C(=O)N[C@@H](C)c2ccc(-n3cc(F)cn3)nc2)CC[C@H](c2nc(C)cc(Nc3cc(C)[nH]n3)n2)CC1 [BLU-667]
1021 | 3450 | 301 | 791.4 | 2370 | 364 | COc1ccc(CN2C3CC2CN(c2ccc(-c4cc(OCC(C)(C)O)cn5ncc(C#N)c45)cn2)C3)cn1 [LOXO-292]
